Measurements as given in patent publication US6274715A, “Tricyclic erythromycin derivatives” (priority 1997, dated 2001).
Values after ≈ are worked out from the molar mass of the structure shown. Like-named read-outs stand apart in the source and are kept apart here.

How the values were obtained:
Assay type in all cases: cell-based
[1] = system: STAPHYLOCOCCUS AUREUS ATCC 6538P; test: In vitro antibacterial activity, MIC, BHI agar dilution; details: S. aureus ATCC 6538P, 35-37° C., 20 to 24 hours, unit assumed
[2] = system: PSEUDOMONAS AERUGINOSA 5007; test: as above; details: P. aeruginosa 5007, unit assumed
PSEUDOMONAS CEPACIA 296I = test: as above; details: P. cepacia 296I, unit assumed
ESCHERICHIA COLI KNK 437 = details: unit assumed
ESCHERICHIA COLI DC-2 = test: In vitro antibacterial activity, MIC, BHI agar dilution; details: E. coli DC-2, unit assumed
[3] = system: STREPTOCOCCUS BOVIS A-5169; test: as above; details: S. bovis A-5169, unit assumed
[4] = system: STREPTOCOCCUS PYOGENES 930; test: as above; details: S. pyogenes 930, unit assumed
[5] = system: STAPHYLOCOCCUS AUREUS CMX 642A; test: as above; details: S. aureus CMX 642A, unit assumed
[6] = system: STREPTOCOCCUS PYOGENES EES61; test: as above; details: S. pyogenes EES61, unit assumed
[7] = system: PROVIDENCIA STUARTII CMX 640; details: P. stuartii CMX 640; BHI agar; unit assumed
[8] = system: PSEUDOMONAS AERUGINOSA K799/61; test: In vitro antibacterial activity, MIC, BHI agar dilution; details: P. aeruginosa K799/61, unit assumed
[9] = system: ENTEROBACTER AEROGENES ATCC 13048; test: as above; details: E. aerogenes ATCC 13048, unit assumed
[10] = system: PSEUDOMONAS AERUGINOSA K799/WT; test: as above; details: P. aeruginosa K799/WT, unit assumed
[11] = system: STAPHYLOCOCCUS AUREUS NCTC10649M; test: as above; details: S. aureus NCTC10649M, unit assumed
[12] = system: PSEUDOMONAS AERUGINOSA BMH10; test: as above; details: P. aeruginosa BMH10, unit assumed
STR[…] 508 = test: as above; details: S. agalactiae CMX 508, unit assumed
Procedure: (§1) Representative compounds of the present invention were assayed in vitro for antibacterial activity as follows: Twelve petri dishes containing successive aqueous dilutions of the test compound mixed with 10 mL of sterilized Brain Heart Infusion (BHI) agar (Difco 0418-01-5) were prepared. Each plate was inoculated with 1:100 (or 1:10 for slow-growing strains, such as Micrococcus and Streptococcus) dilutions of up to 32 different microorganisms, using a Steers replicator block. The inoculated plates were incubated at 35-37° C. for 20 to 24 hours. In addition, a control plate, using BHI agar containing no test compound, was prepared and incubated at the beginning and end of each test.
(§2) An additional plate containing a compound having known susceptibility patterns for the organisms being tested and belonging to the same antibiotic class as the test compound was also prepared and incubated as a further control, as well as to provide test-to-test comparability. Erythromycin A was used for this purpose.
(§3) After incubation, each plate was visually inspected. The minimum inhibitory concentration (MIC) was defmed as the lowest concentration of drug yielding no growth, a slight haze, or sparsely isolated colonies on the inoculum spot as compared to the growth control.

M[…] ATCC 4698 = test: as above; details: M. luteus ATCC 4698, unit assumed
Procedure: as §1, §2, §3

EN[…] ATCC 8043 = test: as above; details: E. faecium ATCC 8043, unit assumed
Procedure: as §1, §2, §3

M[…] ATCC 9341 = test: as above; details: M. luteus ATCC 9341, unit assumed
Procedure: as §1, §2, §3

[13] = system: PSEUDOMONAS AERUGINOSA DPHD-5263; test: as above; details: P. aeruginosa DPHD-5263, unit assumed
[14] = system: STAPHYLOCOCCUS AUREUS A5177; test: as above
[15] = system: KLEBSIELLA PNEUMONIAE ATCC 8045; test: as above; details: K. pneumoniae ATCC 8045, unit assumed
ESCHERICHIA COLI H560 = test: as above; details: E. coli H560, unit assumed
[16] = system: STAPHYLOCOCCUS AUREUS A-5278; test: as above; details: S. aureus A-5278, unit assumed
[17] = system: STAPHYLOCOCCUS EPIDERMIDIS 3519; details: S. epidermidis 3519; BHI agar; unit assumed
CANDIDA ALBICANS CCH 442 = test: In vitro antibacterial activity, MIC, BHI agar dilution; details: C. albicans CCH 442, unit assumed
[18] = system: STAPHYLOCOCCUS AUREUS 1775; test: as above; details: S. aureus 1775, unit assumed
[19] = system: PSEUDOMONAS AERUGINOSA DPHD-2862; test: as above; details: P. aeruginosa DPHD-2862, unit assumed
[20] = system: STAPHYLOCOCCUS AUREUS CMX 553; test: as above; details: S. aureus CMX 553, unit assumed
ESCHERICHIA COLI JUHL = details: E. coli JUHL; BHI agar; unit assumed
ESCHERICHIA COLI SS = test: In vitro antibacterial activity, MIC, BHI agar dilution; details: E. coli SS, unit assumed
[21] = system: STREPTOCOCCUS PYOGENES PIU 2548; test: as above; details: S. pyogenes PIU 2548, unit assumed

SMILES	MIC [1] [µg/mL]	MIC [2] [µg/mL]	MIC (PSEUDOMONAS CEPACIA 296I) [µg/mL]	MIC [3] [µg/mL]	MIC [4] [µg/mL]	MIC [5] [µg/mL]	MIC [6] [µg/mL]	MIC [7] [µg/mL]	MIC [8] [µg/mL]	MIC [10] [µg/mL]	MIC [11] [µg/mL]	MIC [12] [µg/mL]	MIC (STR[…] 508) [µg/mL]	MIC (M[…] ATCC 4698) [µg/mL]	MIC (EN[…] ATCC 8043) [µg/mL]	MIC (M[…] ATCC 9341) [µg/mL]	MIC [13] [µg/mL]	MIC [15] [µg/mL]	MIC (ESCHERICHIA COLI H560) [µg/mL]	MIC [16] [µg/mL]	further results
CC[C@H]1OC(=O)[C@H](C)C(=O)[C@H](C)[C@@H](O[C@@H]2O[C@H](C)C[C@H](N(C)C)[C@H]2O)[C@](C)(OC)C[C@@H](C)C2=N[C@@H](Cc3ccccc3)CN3C(=O)O[C@@]1(C)[C@H]3[C@H]2C [Example 4]	0.2 (≈ 0.275 µM)	> 100	> 100	0.02 (≈ 0.0275 µM)	> 100	0.78 (≈ 1.07 µM)	0.05 (≈ 0.0687 µM)	> 100	1.56 (≈ 2.14 µM)	> 100	0.78 (≈ 1.07 µM)	> 100	0.005 (≈ 0.00687 µM)	0.39 (≈ 0.536 µM)	0.1 (≈ 0.137 µM)	0.1 (≈ 0.137 µM)	> 100	> 100	25 (≈ 34.3 µM)	> 100	MIC (ESCHERICHIA COLI KNK 437; E. coli KNK 437, BHI agar): > 100 µg/mL; MIC (ESCHERICHIA COLI DC-2): 100 µg/mL (≈ 137 µM); MIC [9]: 100 µg/mL (≈ 137 µM); MIC ([14]; S. aureus A5177, unit assumed): 0.2 µg/mL (≈ 0.275 µM); MIC [17]: 0.78 µg/mL (≈ 1.07 µM); MIC (CANDIDA ALBICANS CCH 442): 100 µg/mL (≈ 137 µM); MIC [18]: > 100 µg/mL; MIC [19]: > 100 µg/mL; MIC [20]: 0.78 µg/mL (≈ 1.07 µM); MIC (ESCHERICHIA COLI JUHL): > 100 µg/mL
CC[C@H]1OC(=O)[C@H](C)C(=O)[C@H](C)[C@@H](O[C@@H]2O[C@H](C)C[C@H](N(C)C)[C@H]2O)[C@](C)(OC)C[C@@H](C)C2=NC[C@@H](Cc3ccccc3)N3C(=O)O[C@@]1(C)[C@H]3[C@H]2C [Example 6]	0.1 (≈ 0.137 µM)	100 (≈ 137 µM)	50 (≈ 68.7 µM)	0.01 (≈ 0.0137 µM)	> 100	0.1 (≈ 0.137 µM)	0.02 (≈ 0.0275 µM)	100 (≈ 137 µM)	0.39 (≈ 0.536 µM)	25 (≈ 34.3 µM)	0.1 (≈ 0.137 µM)	50 (≈ 68.7 µM)	0.02 (≈ 0.0275 µM)	0.1 (≈ 0.137 µM)	0.1 (≈ 0.137 µM)	0.02 (≈ 0.0275 µM)	12.5 (≈ 17.2 µM)	12.5 (≈ 17.2 µM)	3.1 (≈ 4.26 µM)	> 100	MIC (ESCHERICHIA COLI KNK 437): 6.2 µg/mL (≈ 8.52 µM); MIC (ESCHERICHIA COLI SS): 0.02 µg/mL (≈ 0.0275 µM); MIC [21]: 0.39 µg/mL (≈ 0.536 µM); MIC ([14]; S. aureus A5177): 0.05 µg/mL (≈ 0.0687 µM); MIC [17]: 0.1 µg/mL (≈ 0.137 µM); MIC (CANDIDA ALBICANS CCH 442): > 100 µg/mL; MIC [18]: > 100 µg/mL; MIC [19]: 100 µg/mL (≈ 137 µM); MIC [20]: 0.2 µg/mL (≈ 0.275 µM)
